Some results are limits rather than exact numbers.

The term % inhibition denotes the share of the control response that was lost under treatment. Low values mean a weak effect, high ones a strong effect. A word on the Hill coefficient: it is the slope factor of the fitted curve. In general, IC50 refers to the midpoint of a concentration-inhibition curve.

One assay deals with CP-AMPARs. The assay can be described thus: Whole-cell patch-clamp of kainate-induced currents in isolated striatal giant interneurons. The assay is classed as cell-based, Wistar rat. Particulars: for % block: representative recording, Figure 1B; for % inhibition: 200 µM phenytoin, n = 5. The method, then: All experimental procedures were approved by the Animal Care and Use Committee of the I.M. Sechenov Institute of Evolutionary Physiology and Biochemistry of the Russian Academy of Sciences. Wistar rats (13–19 days old) were anesthetized with sevoflurane and then decapitated. Maximum effort was made to minimize the number of animals used. Brains were removed quickly and cooled to 2–4°C in an ice bath. […] Single neurons were freed from slices by vibrodissociation ([Vorobjev, 1991]). The antagonism of CP-AMPARs was studied on striatal giant interneurons ([Bernard et al., 1997]; [Gotz et al., 1997]), which were identified by their shape and size. […] The antagonism of CI-AMPARs was studied on pyramidal neurons from the CA1 area of the hippocampus.
Series resistance of about 20 MΩ was compensated by 70–80% and monitored during experiments. Currents were recorded using an EPC-8 amplifier (HEKA Electronics, Lambrecht, Germany), filtered at 5 kHz, sampled, and stored on a personal computer. Drugs were applied using the RSC-200 perfusion system (BioLogic Science Instruments, Claix, France) under computer control. The solution exchange time in the whole-cell mode was 50–60 ms. The extracellular solution contained (in mM) NaCl 143, KCl 5, MgCl2 2.0, CaCl2 2.5, D-glucose 18, and HEPES 10 (pH was adjusted to 7.3 with HCl). The pipette solution contained (in mM) CsF 100, CsCl 40, NaCl 5, CaCl2 0.5, EGTA 5, and HEPES 10 (pH was adjusted to 7.2 with CsOH). Experiments were performed at room temperature (22–24°C). […] Lamotrigine, topiramate, levetiracetam, felbamate, carbamazepine, tiagabin, vigabatrin, zonisamide, and gabapentin were purchased from Tocris Bioscience (Bristol, United Kingdom). Perampanel was from MedChemExpress (Stockholm, Sweden). Kinetics of transient processes of more than 20-ms duration was approximated by exponential functions. Experiments were performed at −80 mV holding voltage. All experimental data are presented as mean ± SD estimated from at least four experiments. Significance of the effects was tested with paired t test. Differences were considered significant at p < 0.05. 3D structures of compounds were calculated by the ZMM software (zmmsoft.ca).

Assay [1] has as its target non-NMDA glutamate receptors. Details: method as in Phillips et al., 1997. The following applies: neocortical wedges; ref Phillips et al., 1997; cited from earlier work.

Take `O=C1NC(=O)C(c2ccccc2)(c2ccccc2)N1` [Phenytoin]: the “% block” value is 19% in the assay with CP-AMPARs (30 μM phenytoin), 38% in the assay on CP-AMPARs (100 μM phenytoin) and 57% in the assay on CP-AMPARs (300 μM phenytoin). Besides, the “% inhibition” value with CP-AMPARs (50 µM kainate) came out at 59 ± 5%; in the assay on CP-AMPARs (500 µM kainate) it was 48 ± 2%. Besides, in the assay on CP-AMPARs (300 µM phenytoin, n = 8), the “% block, coapplication with agonist” value was 60 ± 6%. Also, the “inhibition of kainate-induced currents” value with CP-AMPARs (500 µM phenytoin, highest concentration tested) is recorded as 58 ± 5%. The Hill coefficient in the assay with CP-AMPARs (inhibition of CP-AMPARs, Hill equation) is on record as 0.7 ± 0.2. The IC50 is 250 ± 60 µM in the assay with CP-AMPARs (kainate-induced currents, Hill equation, −80 mV, read-out: IC50 CP-AMPARs) and at least 100 µM in assay [1].

The record behind these values is PMC8688955 (Frontiers in Pharmacology, 2021).
